Where two headings read alike, the source gives them in different places.
Legend:
[1] = tested on: CT26 colon cancer cells; assay: In vitro cytotoxicity, MTT test, CT26 cells; settings: Mus musculus
[2] = Plasma pharmacokinetic in mice after intravenous injection; settings: i.v. 10 mg/kg ETO
[3] = tested on: LLC1 Lewis lung cancer cells; assay: cells; settings: Mus musculus
[4] = in vivo; settings: female, BALB/c, mouse, plasma, iv, 10 mg/kg
[5] = tested on: white blood cells (WBC); assay: Hematological toxicity, white blood cell count in mice; assay type: in vivo, BALB/c female mice
Protocol: The drug schedule protocol was equivalent to the anticancer efficacy study. Blood samples were taken in the mice tail vein at 1, 12, 15, 17 and 22 days and transferred to Eppendorf tube containing 2 μL of EDTA for white blood cells (WBC) numbering using a MS9-5 (MS Pharmaceuticals, France).

[6] = tested on: Murine carcinoma tumors CT26; assay: Anticancer efficacy on subcutaneous CT26 tumors in mice; settings: 10 mg/kg ETO d8, d9 and d11, d12

- Maximum amount in total mice plasma (μg/mL) ± SD (n = 6) [2]: 37.62 ± 0.85 µg/mL
- IC50 ([3]; LLC1, 48 h, read-out: LLC1-IC 50 (48 h) (μM)): 1.66 ± 0.13 µM
- IC50 ([3]; LLC1, 72 h, read-out: LLC1-IC 50 (72 h) (μM)): 1.05 ± 0.02 µM
- AUC(0-t) [4]: 6300 ng·h/mL
- MRT [4]: 1.89 min
- half-life [4]: 4.89 min
- mice weight loss throughout the investigation [6]: a decrease is observed
SMILES: COc1cc([C@@H]2c3cc4c(cc3[C@@H](O[C@@H]3O[C@@H]5CO[C@@H](C)O[C@H]5[C@H](O)[C@H]3O)[C@H]3COC(=O)[C@H]23)OCO4)cc(OC)c1O [Free Etoposide, etoposide]
- IC50 ([1]; CT26, 48 h, read-out: CT26-IC50 (48 h) (μM)): 11.3 ± 1.4 µM
- IC50 ([1]; CT26, 48 h, read-out: IC 50 (48 h) (μg/mL)): 8.99 µg/mL
- IC50 ([1]; CT26, 72 h, read-out: CT26-IC50 (72 h) (μM)): 5.6 ± 0.1 µM
- IC50 ([1]; CT26, 72 h, read-out: IC 50 (72 h) (μg/mL)): 5.17 µg/mL
- White blood cell count (10^9 cells/L), Days 1 ([5]; day 1, taken as control before treatment): 8.9 ± 2.3 10^9 cells/L
- White blood cell count (10^9 cells/L), Days 12 ([5]; day 12, last day of treatment, i.v. 10 mg/kg): 6.5 ± 4.4 10^9 cells/L
- White blood cell count (10^9 cells/L), Days 15 ([5]; day 15, i.v. 10 mg/kg): 11.6 ± 0.9 10^9 cells/L
- White blood cell count (10^9 cells/L), Days 17 ([5]; day 17, i.v. 10 mg/kg): 10.4 ± 1.3 10^9 cells/L
- White blood cell count (10^9 cells/L), Days 22 ([5]; day 22, i.v. 10 mg/kg): 11.3 ± 3.4 10^9 cells/L
- Time for median tumor to reach 50 mm^3 [6]: 9.5
- Mean body weight change, d17 ([6]; second value of the cell, d17): +3.85 d17
- Mean body weight change (day of nadir) ([6]; value at nadir): −3.40
- Median Tumor Volume (mm^3 on day 12) ([6]; day 12): 69 mm^3
